Test results: US11008362B2, “Malonyl-coenzyme A mimics as fatty acid synthase inhibitors and methods of use” (priority 2018, dated 2021)

Experiments:
[1] = biological target: T1, Escherichia coli methylmalonyl-CoA decarboxylase (YgfG, MMCD) (Escherichia coli, UniProt P52045); assay: Inhibition assays of MMCD by 4-9 (HPLC detection, kcat/Km approximation at low substrate); assay type: biochemical; details: 200 μM methylmalonyl-CoA, 1 nM MMCD, pH 6.5, 25° C.; read-out: Ki (inhibition constant, competitive inhibition)
T1 construct: made in house; host or cells: E. coli BL21 (DE3)
T1 sequence (P52045 whole entry): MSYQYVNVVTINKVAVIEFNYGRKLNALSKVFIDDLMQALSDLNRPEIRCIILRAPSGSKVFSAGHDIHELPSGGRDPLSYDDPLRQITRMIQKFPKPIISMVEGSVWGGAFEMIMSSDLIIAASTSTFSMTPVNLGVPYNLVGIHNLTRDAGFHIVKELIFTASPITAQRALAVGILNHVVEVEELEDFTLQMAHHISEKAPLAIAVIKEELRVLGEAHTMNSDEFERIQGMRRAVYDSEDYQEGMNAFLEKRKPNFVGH
Procedure: Initially we attempted to use isothermal titration calorimetry to determine the binding affinity of our analogs to MMCD. […] Because of this secondary site causes problems with biophysical characterization of binding affinity, we used the kcat/Km approximation at low substrate concentrations for the determination of inhibition constants for our analogs. These assays gave Kis of 7.5±1.1 μM for 4, 3.8±1.6 μM for 5, 7.1±1.7 μM for 6, 10.8±2.3 μM for 7, 20.6±2.7 μM for 8 and 19.8±1.4 μM for 9. The sulfonate isosteres bind tighter than the nitro isosteres in general. Our results have been published and incorporated herein by reference in its entirety (Stunkard, L M, et al., J. Am. Chem. Soc. 2019, 141, 5121-5124).
General procedure for MMCD-His6 catalyzed activity assays. The reactions were performed in a 550 μL reaction mixture which contained 50 mM potassium phosphate buffer (KH2PO4/K2HPO4) at pH 6.5 unless otherwise noted, 10 mM MgCl2, methylmalonyl-CoA and the assay was initiated by the addition of MMCD. Reaction mixtures were incubated at 25° C., 65 μL aliquots taken at times noted below were quenched with 25 μL of 50% TFA v/v, precipitating the protein. Centrifugation at 2000 rpm at 25° C. for 10 minutes was used to pellet the protein and the supernatant was analyzed via the procedure outlined below.
General procedure for determination of methylmalonyl-CoA, propionyl-CoA and CoA concentrations in MMCD catalyzed assays. Substrate and product concentrations were determined using HPLC with detection at A254 over the 250×4.6 mm C18(2) column. The analytes were separated with a 2→25% gradient of 0.1% TFA in water→ACN over 20 min. Peak areas of substrate and products were converted to concentration by summing their areas and dividing each peak by this total to give relative percentages that were converted to concentration by adjusting to the starting concentration of methylmalonyl-CoA. This procedure gave essentially the same values as using a standard curve to generate concentrations for each peak, but enhanced reproducibility due to small differences in recovery from the reaction quenching step outlined above.
Inhibition assays of MMCD by 4-9 were performed according to the general procedure above with 200 μM methylmalonyl-CoA, 4-9 (0 μM, 2 μM, 5 μM, 20 μM, and 50 μM) and the assay was initiated by the addition of 1 nM MMCD. Aliquots were taken at the times 20s, 40s, 60s, 150s, 300s, 600s, 900s, and 1800s.
The initial rates (Vi) of decomposition of methylmalonyl-CoA were determined by fitting the progress curve data to equation (1) which describes a simple exponential decay with rate (k), time (t) and initial substrate concentration ([S]t). The rate of formation of propionyl-CoA or CoA could be fit to equation (2). The derivative at time 0 for Equation (1) divided by enzyme concentration gives the initial rates Vi as shown in equation (3). Using this method rather than linear estimation from the early data points gave similar values. However, it allowed more accurate determination of Vi at early time points. [S]=[S]t·e^−k·t Equation (1) [S]=[S]t·(1−e^k·t) Equation (2) Vi=([S]t·k)/[E] Equation (3)
Inhibition of MMCD by 4-9 was determined by fitting initial rate data to equation (6), which describes competitive inhibition and […] describes the Vi in the presence of inhibitor (Lu, J, et al., Protein Eng. Des. Sel. 2017, 30, 395-399). The values of (Vi·Vis)/(Vii−Vis) and Km/kcat were determined from the initial slopes of Vi or Vii versus substrate concentration rather than from the full assay, see Figures S5 and S9. A minimum of two concentrations were used, 20 or 50 μM of each 4-9 and the experiments were repeated at least twice.

[2] = biological target: MMCD (Escherichia coli, UniProt P52045); details: coupled assay, pH 7.2 and 37° C., not optimized; cited from earlier work
MMCD, sequence (P52045 whole entry): as above

| Structure (SMILES) | Ki [1] [µM] | Km [2] [µM] | kcat [2] [s⁻¹] |
| --- | --- | --- | --- |
| CC(C(=O)NCCNC(=O)CCNC(=O)C(O)C(C)(C)COP(=O)(O)OP(=O)(O)OCC1OC(n2cnc3c(N)ncnc32)C(O)C1OP(=O)(O)O)S(=O)(=O)O (centres unmarked) [compound 6, 2-sulfonatepropionyl-amino(dethia)CoA] | 7.1 ± 1.7 |  |  |
| CC(C(=O)NCCNC(=O)CCNC(=O)[C@H](O)C(C)(C)COP(=O)(O)OP(=O)(O)OC[C@H]1O[C@@H](n2cnc3c(N)ncnc32)[C@H](O)[C@@H]1OP(=O)(O)O)[N+](=O)[O-] (some centres unmarked) [compound 9, 2-nitropropionyl-amino(dethia)CoA] | 19.8 ± 1.4 |  |  |
| CC(C(=O)SCCNC(=O)CCNC(=O)[C@H](O)C(C)(C)COP(=O)(O)OP(=O)(O)OC[C@H]1O[C@@H](n2cnc3c(N)ncnc32)[C@H](O)[C@@H]1OP(=O)(O)O)[N+](=O)[O-] (some centres unmarked) [compound 7, 2-nitropropionyl-S-CoA] | 10.8 ± 2.3 |  |  |
| C[C@@H](C(=O)O)C(=O)SCCNC(=O)CCNC(=O)[C@H](O)C(C)(C)COP(=O)(O)OP(=O)(O)OC[C@H]1O[C@@H](n2cnc3c(N)ncnc32)[C@H](O)[C@@H]1OP(=O)(O)O [(2S)-methylmalonyl-CoA] |  | 13.6 | 1.6 |
| CC(C(=O)SCCNC(=O)CCNC(=O)C(O)C(C)(C)COP(=O)(O)OP(=O)(O)OCC1OC(n2cnc3c(N)ncnc32)C(O)C1OP(=O)(O)O)S(=O)(=O)O (centres unmarked) [compound 4, 2-sulfonatepropionyl-S-CoA] | 7.5 ± 1.1 |  |  |
| CC(C(=O)OCCNC(=O)CCNC(=O)[C@H](O)C(C)(C)COP(=O)(O)OP(=O)(O)OC[C@H]1O[C@@H](n2cnc3c(N)ncnc32)[C@H](O)[C@@H]1OP(=O)(O)O)[N+](=O)[O-] (some centres unmarked) [compound 8, 2-nitropropionyl-oxa(dethia)CoA] | 20.6 ± 2.7 |  |  |
| CC(C(=O)OCCNC(=O)CCNC(=O)C(O)C(C)(C)COP(=O)(O)OP(=O)(O)OCC1OC(n2cnc3c(N)ncnc32)C(O)C1OP(=O)(O)O)S(=O)(=O)O (centres unmarked) [compound 5, 2-sulfonatepropionyl-oxa(dethia)CoA] | 3.8 ± 1.6 |  |  |
